Each structure is given as a SMILES string. Where only a bound is given, the exact number is not on record here.

Sequence of CRBN truncate (318-426) (Q96SW2 318-426): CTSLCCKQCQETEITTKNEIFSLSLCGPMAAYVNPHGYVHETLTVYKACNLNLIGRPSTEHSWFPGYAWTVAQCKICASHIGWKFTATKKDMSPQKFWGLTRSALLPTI

The experiment addresses CRBN truncate (318-426) (Homo sapiens (Human), UniProt Q96SW2). The experiment is described as follows: Measurement of molecular interactions using surface plasmon resonance (SPR), Biacore T200. The class given is binding. The conditions noted are these: 25° C., immobilized CRBN truncate, upper limit of measurement 200 μM. The procedure, abridged:
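Compound injections used 60 s association and 120 s dissociation in HEPES pH 7.5 buffer (150 mM NaCl, 1 mM TCEP, 0.005% Tween 20, 2% DMSO). The ligand was CRBN truncate 318-426 bearing a C-terminal Avi-tag, immobilised via streptavidin on an SA sensor chip.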
Background: Surface plasmon resonance follows binding to a sensor surface in real time, without labels.
In the case of `CCOC(=O)c1ccc2nc(N3CC4(CC(=O)N(C5CCCC(=O)NC5=O)C4=O)C3)sc2c1` (centres unmarked) [Example 273-2, Ethyl 2-[6-(2,7-dioxoazepan-3-yl)-5,7-dioxo-2,6-diazaspiro [3.4]octan-2-yl]-1,3-benzothiazole-6-carboxylate], the Kd (as a rule, the constant that tells how readily two partners part at equilibrium) was at least 100 µM. Next, `CCOC(=O)c1ccc2nc(N3CCC4(CCCC(=O)NC4=O)C3)sc2c1` (centres unmarked) [Example 73, Ethyl 2-(6,8-dioxo-2,7-diazaspiro[4.6]undecane-2-yl)-1,3-benzothiazole-6-carboxylate]: below 50 µM. Then `CC(C)(C)OC(=O)Nc1cccc(-c2cn(C3CCCC(=O)NC3=O)nn2)c1` (centres unmarked) [Example 5, tert-Butyl N-[3-[1-(2,7-dioxoazepan-3-yl)triazol-4-yl]phenyl]carb amate], with at least 100 µM; and `Cc1sc2c(c1C)C(c1ccc(Cl)cc1)=N[C@@H](CC(=O)NCCCCCCCCn1ccc3c(N4CC5(CC(=O)N(C6CCC(=O)NC6=O)C5=O)C4)ncnc31)c1nnc(C)n1-2` (stereo partly drawn) [Example 318, 2-[(9S)-7-(4-chlorophenyl)-4,5,13-trimethyl-3-thia-1,8,11,12-tetraazatricyclo[8.3.0.02,6]trideca-2(6),4,7,10,12-pentaen-9-yl]-N-[8-[4-[6-(2,6-dioxopiperidin-3-yl)-5,7-dioxo-2,6-diazaspiro[3.4]octan-2-yl]pyrrolo[2,3-d]pyrimidin-7-yl]octyl]acetamide], with below 50 µM; and `O=C1CCCC2(CCCN(C(=O)c3ccccc3)CCC2)C(=O)N1` [Example 14, 11-Benzoyl-2,11-diazaspiro[6.7]tetradecane-1,3-dione], with 50 to 100 µM.

`N#Cc1ccccc1N1CCC2(CCCC(=O)NC2=O)C1` (centres unmarked) [Example 191]: the Kd was at least 100 µM. Next, `O=C1CCCC2(CCN(c3ncc([N+](=O)[O-])cc3C(F)(F)F)C2)C(=O)N1` (centres unmarked) [Example 79, 2-(5-nitro-3-(trifluoromethyl)-2-pyridyl)-2,7-diazaspiro[4.6]undecane-6,8-dione]: at least 100 µM; `CC(C)(C)OC(=O)c1cccc(N2CCC3(CCCC(=O)NC3=O)C2)n1` (centres unmarked) [Example 92, tert-Butyl 6-(6,8-dioxo-2,7-diazaspiro [4.6]undecan-2-yl) pyridine-2-carboxylate]: at least 100 µM. Next, `CC(C)(C)OC(=O)c1ccc(OC2CCCC(=O)NC2=O)nc1` (centres unmarked) [Example 268, tert-Butyl 6-(2,7-dioxoazepan-3-yl) oxypyridine-3-carboxylate]: at least 100 µM; `CC(C)(C)OC(=O)NCCCCCCCn1c(=O)n(C2CCCC(=O)NC2=O)c2ncccc21` (centres unmarked) [Example 201-2]: at least 100 µM; `CC(C)(C)OC(=O)NCCCn1c(=O)n(C2CCCC(=O)NC2=O)c2ccccc21` (centres unmarked) [Example 196, tert-Butyl N-[3-[3-(2,7-dioxoazepan-3-yl)-2-oxobenzimidazol-1-yl]propyl]carbamate]: below 50 µM. As to `CC(C)(C)OC(=O)Nc1ccccc1-c1cn(C2CCCC(=O)NC2=O)nn1` (centres unmarked) [Example 6, tert-Butyl N-[2-[1-(2,7-dioxoazepan-3-yl)triazol-4-yl]phenyl]carbamate], the Kd is at least 100 µM. Next, `O=C1CCCC(CNc2ccc(F)cc2)C(=O)N1` (centres unmarked) [Example 25, 3-[(4-Fluoroanilino)methyl]azepane-2,7-dione]: at least 100 µM; `NC(=O)c1nn(-c2ccc(C(=O)NCCOCCOCCNC(=O)CN3CCC4(CCCC(=O)NC4=O)CC3=O)cc2)cc1NC(=O)c1coc(-c2ccnc(NCC3CC3)c2)n1` (centres unmarked) [Example 144, N-[3-Carbamoyl-1-[4-[2-[2-[2-[[2-(4,7,9-trioxo-3,8-diazaspiro [5.6]dodecan-3-yl)acetyl]amino]ethoxy]ethoxy]ethylcarbamoyl]phenyl]pyrazol-4-yl]-2-[2-(cyclopropylmethylamino)-4-pyridyl]oxazole-4-carboxamide]: below 50 µM; `COc1ccc2nc(N3CCC4(CCCC(=O)NC4=O)C3)sc2c1` (centres unmarked) [Example 187, 2-(6-Methoxy-1,3-benzothiazol-2-yl)-2,7-diazaspiro[4.6]undecane-6,8-dione]: 50 to 100 µM. With `CC(C)(C)OC(=O)c1cccc(N2CCC3(CCCC(=O)NC3=O)CC2=O)c1` (centres unmarked) [Example 110, tert-Butyl 3-(4,7,9-trioxo-3,8-diazaspiro [5.6]dodecan-3-yl) benzoate], the Kd is at least 100 µM. Then `CC(C)(C)OC(=O)c1ccc2nc(N3CC4(CC(=O)N(C5CCC(=O)NC5=O)C4=O)C3)sc2c1` (centres unmarked) [Example 231, tert-Butyl 2-[6-(2,6-dioxopiperidin-3-yl)-5,7-dioxo-2,6-diazaspiro[3.4]octan-2-yl]-1,3-benzothiazole-6-carboxylate], with below 50 µM.

Compound `COC(=O)c1cc2c(N3CCC4(CCCC(=O)NC4=O)C3)ncnc2s1` (centres unmarked) [Example 176, Methyl 4-(6,8-dioxo-2,7-diazaspiro[4.6]undecan-2-yl)thieno[2,3-d]pyrimidine-6-carboxylate] registered a Kd below 50 µM.

For the compound `Cc1sc2c(c1C)C(c1ccc(Cl)cc1)=N[C@@H](CC(=O)NCCCCCCCCCCC(=O)N1CCC(c3ccc(C45CCC(O4)C(=O)NC5=O)cc3)CC1)c1nnc(C)n1-2` (stereo in doubt) [Example 358, 2-[(9S)-7-(4-chlorophenyl)-4,5,13-trimethyl-3-thia-1,8,11,12-tetraazatricyclo[8.3.0.02,6]trideca-2(6),4,7,10,12-pentaen-9-yl]-N-[11-[4-[4-[(1R*,5R*)-2,4-dioxo-8-oxa-3-azabicyclo[3.2.1]octan-1-yl]phenyl]-1-piperidyl]-11-oxo-undecyl]acetamide], the Kd was below 50 µM. Next, `CC(C)(C)OC(=O)NCCCCCCCn1c(=O)n(C2CCCC(=O)NC2=O)c2ccccc21` (centres unmarked) [Example 198, tert-Butyl N-[7-[3-(2,7-dioxoazepan-3-yl)-2-oxobenzimidazol-1-yl]heptyl] carbamate]: below 50 µM. Next, `COc1cccc2c1ccc(=O)n2C1CCCC(=O)NC1=O` (centres unmarked) [Example 258, 3-(5-Methoxy-2-oxoquinolin-1-yl)azepane-2,7-dione]: at least 100 µM; `CC(C)(C)OC(=O)c1ccc(N2CCCC3(COCC(=O)NC3=O)C2)nc1` (centres unmarked) [Example 15, tert-Butyl 6-(10,12-dioxo-8-oxa-2,11-diazaspiro [5.6]dodecan-2-yl) pyridine-3-carboxylate]: at least 100 µM. Then `O=C1CCCC(c2ccc([N+](=O)[O-])cc2)C(=O)N1` (centres unmarked) [Example 61, 3-(4-Nitrophenyl) azepane-2,7-dione], with at least 100 µM; and `Cc1sc2c(c1C)C(c1ccc(Cl)cc1)=N[C@@H](CC(=O)NCCCCCCCCCCC(=O)N1CCc3c(ncnc3N3CC4(CC(=O)N(C5CCC(=O)NC5=O)C4=O)C3)C1)c1nnc(C)n1-2` (stereo partly drawn) [Example 357, 2-[(9S)-7-(4-chlorophenyl)-4,5,13-trimethyl-3-thia-1,8,11,12-tetraazatricyclo[8.3.0.02,6]trideca-2(6),4,7,10,12-pentaen-9-yl]-N-[11-[4-[6-(2,6-dioxo-3-piperidyl)-5,7-dioxo-2,6-diazaspiro[3.4]octan-2-yl]-6,8-dihydro-5H-pyrido[3,4-d]pyrimidin-7-yl]-11-oxo-undecyl]acetamide], with below 50 µM. `CC(C)(C)[Si](C)(C)OC1c2cccc(Br)c2CC1N1CC=CC(=O)NC1=O` (centres unmarked) [Example 307]: the Kd was at least 100 µM. Then `Cn1nc(N2C=CCC(=O)NC2=O)c2ccc(/C=C/C(=O)OC(C)(C)C)cc21` [Example 287, tert-Butyl (E)-3-[3-(2,4-dioxo-5H-1,3-diazepin-1-yl)-1-methylindazol-6-yl]prop-2-enoate], with below 50 µM.

Take `COC(=O)c1cccc(CN2CCC3(CCCC(=O)NC3=O)C2)c1` (centres unmarked) [Example 33, Methyl 3-[(6,8-dioxo-2,7-diazaspiro[4.6]undecan-2-yl)methyl]benzoate]: the Kd is at least 100 µM. Next, `CC(C)(C)OC(=O)NCCCCCCCc1cn(C2CCCC(=O)NC2=O)nn1` (centres unmarked) [Example 147, tert-Butyl N-[7-[1-(2,7-dioxoazepan-3-yl)triazol-4-yl]heptyl]carbamate]: at least 100 µM; `Cn1c(=O)n(C2CCCC(=O)NC2=O)c2cccc(CCCCC(=O)OC(C)(C)C)c21` (centres unmarked) [Example 214, tert-Butyl 5-[1-(2,7-dioxoazepan-3-yl)-3-methyl-2-oxobenzimidazol-4-yl]pentanoate]: 50 to 100 µM. Then `CC1(c2cccc(N)c2)CCCC(=O)NC1=O` (centres unmarked) [Example 133, 3-(3-Aminophenyl)-3-methyl-azepane-2,7-dione], with at least 100 µM; and `O=C1CCC(N2C(=O)CC3(CN(c4ccc([N+](=O)[O-])cc4)C3)C2=O)C(=O)N1` (centres unmarked) [Example 232, 6-(2,6-Dioxopiperidin-3-yl)-2-(4-nitrophenyl)-2,6-diazaspiro[3.4]octane-5,7-dione], with 50 to 100 µM; and `Cc1sc2c(c1C)C(c1ccc(Cl)cc1)=N[C@@H](CC(=O)NCCCCCCCNC(=O)Cn1c(=O)c(=O)n(C3CCCC(=O)NC3=O)c3ccccc31)c1nnc(C)n1-2` (stereo partly drawn) [Example 350, 2-[(9S)-7-(4-chlorophenyl)-4,5,13-trimethyl-3-thia-1,8,11,12-tetraazatricyclo[8.3.0.02,6]trideca-2(6),4,7,10,12-pentaen-9-yl]-N-[7-[[2-[4-(2,7-dioxoazepan-3-yl)-2,3-dioxo-quinoxalin-1-yl]acetyl]amino]heptyl]acetamide], with below 50 µM.

In turn, `Cn1ccc2c(C(=O)N3CCC4(CCCC(=O)NC4=O)C3)cccc21` (centres unmarked) [Example 151, 2-(1-Methylindole-4-carbonyl)-2,7-diazaspiro [4.6]undecane-6,8-dione] yielded a Kd of at least 100 µM. Next, `Cn1c(=O)n(C2CCCC(=O)NC2=O)c2ccc(C3CCN(C(=O)OC(C)(C)C)CC3)cc21` (centres unmarked) [Example 218, tert-Butyl 4-[1-(2,7-dioxoazepan-3-yl)-3-methyl-2-oxobenzimidazol-5-yl]piperidine-1-carboxylate]: 50 to 100 µM; `Cn1ncc2c(N3CCC4(CCCC(=O)NC4=O)C3)ncnc21` (centres unmarked) [Example 39, 2-(1-methylpyrazolo[3,4-d]pyrimidin-4-yl)-2,7-diazaspiro[4.6]undecane-6,8-dione]: at least 100 µM.

For the origin of these results see patent US20250388593A1 (MITSUBISHI TANABE PHARMA CORPORATION, priority 2023, published 2025).
